Assay results from patent US4636518A, “Imidazole derivatives and pharmaceutical compositions” (G. D. Searle & Co., priority 1981, dated 1987).
Like-named read-outs stand apart in the source and are kept apart here.

How the values were obtained:
[1] = test system: collagen induced aggregation of human prp; experiment: Inhibition of platelet aggregation in vitro, collagen induced (turbidometric); format: cell-based; conditions: for IC50: Platelet, human prp, collagen, read-out: I.C.50 (μM) vs COLLAGEN; for inhibition of collagen induced aggregation of human prp: result in words
Method: (§1) (a) Platelet rich plasma (prp) preparation
Human venous blood was […] from healthy male donors, who had denied any medication during the previous 14 days. […] The citrated blood was centrifuged at 160 g for 10 mins. at 22° C. to obtain platelet rich plasma (prp). The platelets were then counted on a Coulter counter, and the platelet count was adjusted to 200,000 per μl with plasma.
(§2) Inhibition of Platelet Aggregation in vitro

[2] = test system: thromboxane production in human platelet rich plasma (TxB2); experiment: Thromboxane production in human platelet rich plasma (TxB2 radioimmunoassay, collagen stimulated); format: cell-based; conditions: read-out: ACTIVITY (IC50 × 10^6 M)
Source text: The antithrombotic activity of the compounds of the invention has been determined by their ability to inhibit production of thromboxane A2 (TxA2) by blood platelets the synthesis of which is an important factor in the aggregation of platelets and the initiation of thrombosis (R. J. Gryglewski, CRC Crit. Rev. Biochem., (1980), 7(4), 291).
The compounds of the invention have been tested by the following in vitro radioimmunoassays for their ability to inhibit thromboxane and affect prostacyclin production.
Thromboxane production in Human Platelet Rich Plasma
as §1
(§3) Human venous blood was […] from healthy male donors, who had denied any medication during the previous 14 days. Nine volumes of blood were mixed with one volume of 3.24% trisodium citrate. The citrated blood was centrifuged at 160 g for 10 mins. at 22° C. to obtain platelet rich plasma (prp). The platelets were then counted on a Coulter counter, and the platelet count was adjusted to 200,000 per μl with plasma.
(b) Thromboxane generation
The prp was then dispensed as aliquots into micro-Eppendorf tubes, maintained at 37° C. in a dry bath. The compounds, dissolved either in saline, ethanol, or dimethylsulphoxide, were added in duplicate to the prp aliquots to produce final concentrations in the range of 0.1-30 μg/ml. When ethanol and DMSO were used as the vehicle, triplicate controls containing the same percentage of vehicle as the test compounds were made. The final concentration of organic solvent was never more than 0.1%, which in previous experiments had no effect on TxB2 generation.
Following a 10 min. incubation with test compounds or vehicle, collagen was added to produce a final concentration of 20 μg/ml. The tubes were then whirly-mixed for 15 seconds and replaced in the dry bath for a further 10 minutes, controls received saline instead of collagen. The reaction was then stopped by rapid centrifugation (15000 g for 3 mins). The plasma was removed and frozen at -29° C. until assayed.
(c) Assay of Thromboxane B2
Briefly, 100 μl aliquots of the following, in 50 mM phosphate buffer+0.1% gelatin+thimerosal (pH 6.8) were incubated together for 16 hours at 4° C.: thromboxane TxB2 (plasma extract or standards 50 to 10,000 pg/ml), [^3 H]--TxB2 (approximately 15,000 dpm) and anti-TxB2 antiserum (0.5 μg/100 μl). The free and protein bound [^3 H]--TxB2 were separated by adsorption onto activated charcoal followed by centrifugation. […] of the supernatant was added to an aqueous scintillation fluid, and the radioactivity present was counted in a liquid scintillation counter. The binding of [^3 H]--TxB2 in the absence of added TxB2 was approximately 55%. The least amount of TxB2 to be detected accurately in the plasma was 50 pg/ml. Cross reactivity with other prostaglandins is less than 0.005% except PGD2 which is 1%.
Thus plasma samples were assayed to give a rough approximation of TxB2 content. The plasma was then appropriately diluted and assayed in duplicate to give accurate values.
The amount of TxB2 generated by the collagen was calculated by subtracting mean values obtained for the saline stimulated platelets from the mean values obtained from the collagen stimulated platelets. Then the amount of TxB2 generated in the presence of each concentration of compound was expressed as a % control and dose response curves were then constructed to determine the concentration of compound which produced a 50% inhibition.

[3] = test system: arachidonic acid induced aggregation of human prp; experiment: Inhibition of platelet aggregation in vitro, arachidonic acid induced (turbidometric); format: cell-based; conditions: for IC50: Platelet, human prp, arachidonic acid, read-out: I.C.50 (μM) vs ARACHIDONIC ACID; for inhibition of arachidonic acid induced aggregation of human prp: result in words
Method: as §1, §3, §2
In addition to the above tests, platelet aggregation in citrated prop (prepared as above) against a variety of aggregating agents was measured turbidometrically in a Payton Dual Channel Aggregometer (method as described in G.V.R. Born, Nature, (1962), 194, 927).

[4] = test system: platelet aggregation in the male retired breeder rat; experiment: Antiplatelet activity in the male retired breeder rat model (platelet aggregate ratio); format: in vivo; conditions: read-out: EX50 (3h post oral administration)
Method: The retired breeder male rat may be utilized any time from 24 hours to 6 months after receipt without prior fasting or manipulation. […] The test (as described in R. N. Saunders, T. S. Burns, M. R. Selzer and E. R. Waskawic, Lab. Animal Sci., (1977), 27, 757-761) consists of the oral administration of the investigative compound either dissolved in or suspended in propylene glycol 400 at 20 mg/kg to four retired breeder male rats (40 mg of compound required). Three hours from the time of administration, the rats are ether anaesthetized, the abdominal cavity exposed and one ml of blood is withdrawn into each of two syringes from the vena cava. The first syringe contains four ml of buffered citrate/formalin solution and the second syringe contains four ml of buffered citrate alone. The syringes are inverted, held at room temperature for 15 minutes and the contents are centrifuged at 170 g for 14 minutes. Platelet counts are obtained on the undiluted solutions by means of a hemacytometer under 430×phase-contrast microscopy. The platelet aggregate ratio is obtained by dividing the platelet count of the first syringe by that of the second syringe. A ratio of 1.0 would indicate that no platelet aggregates are present whereas ratios below 1.0 indicate the presence and degree of platelet aggregate formation which has occurred.

[5] = test system: aggregation of human platelet rich-plasma; experiment: Aggregation of human platelet rich plasma (aggregating agent not stated); format: cell-based; conditions: in vitro, result in words
[6] = test system: PGI2 synthesis in cultured bovine arterial endothelial cells; experiment: Prostacyclin production in cultured aortic endothelial cells (6-keto PGF1α radioimmunoassay); format: cell-based; conditions: for Net PGI2 synthesis: control 120
Source text: Prostacyclin Production in Cultured Aortic Endothelial Cells
Bovine aortic arch tissue was obtained from a local abattoir, and transported to the laboratory on ice. Arterial endothelial cells were obtained from the washed (phosphate buffered saline) aortic arch tissue by gentle scraping of the intima, within two hours of sacrifice. Cell suspensions were washed by centrifugation, resuspended, and propagated in Roswell Park Memorial Institute (RPMI) 1640 medium (Moore, G. E., J.A.M.A., (1967), 199, 519) 1640 medium+20% foetal calf serum (FCS)+antibiotics (1-2 doublings). The cells were then trypsinised, cloned by limiting dilution, selected colonies grown to confluence (3-4 passages), and stored in liquid nitrogen. When required, batches of cells were removed from store, resuscitated, and propagated in RPMI medium+10% FCS+antibiotics (passaged 6-15 times). At trypsinisation, representative cells from each passage were transferred to multiwell plates (1×10^5 cells/well) and incubated for 3 days (final count 3.5×10^5 cells/well).
The medium in each well of the plate was exchanged for serum and antibiotic free RPMI 1640, and a time 0 sample (100 μl) taken. Drugs or vehicle were next added as required, and a further sample (800 μl) taken from each well after a 60 minute incubation at 37° C. with gentle shaking. Prostacyclin synthesis and release into the medium over this period was estimated using an RIA technique for 6-keto PGF1α, the stable metabolite of PGI2 (New England Nuclear 6-keto PGF1α RIA kit, Catalogue No. NEK 008).
(b) Assay of 6-keto PGF1α
Briefly, 100 μl aliquots in 50 mM phosphate buffer+0.1% gelatin+0.01% thimerosal (pH 6.8) of the following were incubated together for 16 hours at 4° C.: 6-keto PGF1α (incubation medium extract or standards 10-1000 pg/0.1 ml), [^3 H]-6-keto PGF1α (approximately 15000 dpm) anti-6-keto PGF1α antiserum. The […] and protein bound [^3 H]-6-keto PGF1α were separated by adsorption onto activated charcoal followed by centrifugation. 850 μl of the supernatant was added to an aqueous scintillation fluid, and the radioactivity present counted in a liquid scintillation counter. The binding of [^3 H]-6-keto PGF1α in the absence of added 6-keto PGF1α was approximately 40%. The least amount of 6-keto PGF1α to be detected accurately in the samples was 100 pg/ml. Cross reactivity with other prostaglandins was less than 0.3% except PGE2 (2%) and PGF2α (2.7%).

[7] = male breeder rat, oral, 3h post administration

IC50 [2] | SMILES | IC50 [1] | IC50 [3] | ED50 [4, 7] | other results
23 µM | COc1ccc(COCC(Cn2ccnc2)OCc2ccc(Cl)cc2)cc1 (centres unmarked) [Example 4] |  |  |  | 
12 µM | COc1ccc(COCC(Cn2ccnc2)OCc2ccc(C#N)cc2)cc1 (centres unmarked) [Example 24] |  |  |  | 
14 µM | COc1ccc(COCC(Cn2ccnc2)OCc2cccc(OC)c2)cc1 (centres unmarked) [Example 15] |  |  |  | 
20 µM | COc1ccc(COCC(Cn2ccnc2)OCc2ccsc2)cc1 (centres unmarked) [Example 30] |  |  |  | 
 | OCCN(CCO)c1nc(N2CCCCC2)c2nc(N(CCO)CCO)nc(N3CCCCC3)c2n1 [dipyridamole, reference compound] | > 200 µM | > 200 µM | 1.8 mg/kg | 
 | CC(=O)Oc1ccccc1C(=O)O [aspirin, reference compound] |  | 56 µM |  | ED50 ([4]; Rattus norvegicus, po, 3 h): 7.7 mg/kg
13 µM | c1cncc(COC(COCc2ccc3c(c2)OCO3)Cn2ccnc2)c1 (centres unmarked) [Example 34] |  |  |  | 
 | O=C1C(CC[S+]([O-])c2ccccc2)C(=O)N(c2ccccc2)N1c1ccccc1 (centres unmarked) [sulphinpyrazone, reference compound] | 173 µM |  | 4.1 mg/kg | 
22 µM | COc1ccc(COC(CSCc2ccc(OC)cc2)Cn2ccnc2)cc1 (centres unmarked) [Example 35] |  |  |  | 
10 µM | COc1ccc(COCC(Cn2ccnc2)OCc2ccccn2)cc1 (centres unmarked) [Example 28] |  |  |  | 
11 µM | COc1ccc(COCC(Cn2ccnc2)OCc2ccccc2)cc1 (centres unmarked) [Example 2] |  |  |  | 

SMILES | IC50 [2] | IC50 [1] | IC50 [3] | ED50 [4, 7] | other results
COc1ccc(COCC(Cn2ccnc2)OCc2ccc3c(c2)OCO3)cc1 (centres unmarked) [Example 20] | 4 µM | 89 µM | 24 µM | 1.8 mg/kg | inhibition of collagen induced aggregation of human prp [1]: clearly more active than aspirin, dipyridamole, or sulphinpyrazone; inhibition of arachidonic acid induced aggregation of human prp [3]: clearly more active than aspirin, dipyridamole, or sulphinpyrazone
COc1ccc(COCC(Cn2ccnc2)OCc2ccc(OC)cc2)cc1 (centres unmarked) [Example 1, 1-[2-[(4-methoxyphenyl)methoxy]-3-[(4-methoxyphenyl)methoxy]propyl]-1H-imidazole] | 12 µM | 103 µM | 31 µM | 0.49 mg/kg | aggregation of human platelet rich-plasma [5]: the aggregation of human platelet rich-plasma; Net PGI2 synthesis ([6]; 26 µM): 125 pg 6-keto PGF1 α/60 min/3.5 × 10^5; Net PGI2 synthesis ([6]; 7.8 μm): 130 pg 6-keto PGF1 α/60 min/3.5 × 10^5; Net PGI2 synthesis ([6]; 26.0 μm): 106 pg 6-keto PGF1 α/60 min/3.5 × 10^5; Net PGI2 synthesis ([6]; 78.0 μm): 135 pg 6-keto PGF1 α/60 min/3.5 × 10^5; activation at 2.6 µM ([6]; Bos taurus, Endothelial cell, 1 h, 2.6 μm, 60 min, read-out: % Change (PGI2 synthesis)): 4%; activation at 7.8 µM ([6]; Bos taurus, Endothelial cell, 1 h, 7.8 μm, 60 min, read-out: % Change (PGI2 synthesis)): 8%; activation at 26 µM ([6]; Bos taurus, Endothelial cell, 1 h, 26.0 μm, 60 min, read-out: % Change (PGI2 synthesis)): -12%; activation at 78 µM ([6]; Bos taurus, Endothelial cell, 1 h, 78.0 μm, 60 min, read-out: % Change (PGI2 synthesis)): 12%; effect on production of prostacyclin ([6]; at concentrations equivalent to those which inhibit TxA2 formation, result in words): not to significantly effect production of prostacyclin; effect on basal PGI2 synthesis ([6]; at concentrations substantially in excess of those which inhibit platelet thromboxane synthetase, 1 hour, result in words): no significant effect on basal PGI2 synthesis; inhibition of collagen induced aggregation of human prp [1]: clearly more active than aspirin, dipyridamole, or sulphinpyrazone; inhibition of arachidonic acid induced aggregation of human prp [3]: clearly more active than aspirin, dipyridamole, or sulphinpyrazone
